Laboratory results: US20070213686A1, “System and method for prevention of radiocontrast induced nephropathy” (priority 2003, published 2007)
Structures can show the parent of a compound that is named as a salt.

Key:
[1] = Local renal papaverine, renal blood flow in human subjects; format: in vivo; settings: local renal doses of about 2 mg/min and about 3 mg/min
[2] = Intra-renal delivery of fenoldopam, renal artery blood flow; format: in vivo, human; settings: intra-renal delivery at about 0.1 and about 0.2 mcg/kg/min
Experimental: At the time of the procedure, a switch to local delivery can easily be made with the previously described bifurcated catheter. […] Therefore another titration (in this situation most frequently migrating upward) is performed according to further embodiments, starting at the systemic dose, and moving towards a tolerated local dose, for the duration of the intended catheterization. Post-procedure, if the specialized bifurcated catheter is preferably to be removed, then the administration could be returned to a systemic dose, with or without additional hydration concurrently.

[3] = cited from earlier work
[4] = tested on: hypovolemic dogs receiving contrast; settings: cited from earlier work
contrast nephropathy = settings: cited from earlier work
[5] = systemic regimens; nausea and vomiting, flushing, hypotension, tachycardia, hypokalemia, ST/T-wave changes, dizziness, dyspnea; cited from earlier work

With `COc1ccc(Cc2nccc3cc(OC)c(OC)cc23)cc1OC` [papaverine] the “renal blood flow rates” value [1] was “increase renal blood flow rates”.

For `Oc1ccc(C2CNCCc3c2cc(O)c(O)c3Cl)cc1` (stereo not shown) [fenoldopam, fenoldopam mesylate], the “renal artery blood flow” value [2] is listed as “significant and immediate increases in renal artery blood flow”, the “increase in renal blood flow from baseline” value ([3]; normal volunteers, 0.1 mcg/kg/min) is listed as “approximately 40%” and the “increment in renal blood flow” value ([3]; patients with a mean serum creatinine of 2.6 mg/dL, 0.1 mcg/kg/min) is listed as 16%. For the same molecule, the renal vasodilation ([3]; systemic doses as low as approximately 0.01 through approximately 0.5 mcg/kg/min IV) was “dose-dependent renal vasodilation”, the “renal blood flow and renal function (glomerular filtration rate)” value [4] was “prevented reduction in both renal blood flow and renal function” and the “efficacy in preventing contrast nephropathy, 0.2 vs 0.1 mcg/kg/min” value (contrast nephropathy; 0.2 mcg/kg/min compared with 0.1 mcg/kg/min) was “greater efficacy”. The “benefit over saline (CONTRAST trial)” value (contrast nephropathy; 300 patients, 0.05-0.1 mcg/kg/min systemic IV over 12 hours) was “no benefit”, the “renal function in high-risk patients undergoing contrast procedures” value (contrast nephropathy; small studies incl. randomized, double blind, placebo-controlled trial, 0.05-0.5 mcg/kg/min for 4-6 hours, started prior to contrast) was “attenuated worsening of renal function” and the “frequency of common side effects other than headache” value [5] was ≤ 5%.
